We go through 4 molecules from patent US9085607B2, “ACH-0142684 sodium salt polymorph, composition including the same, and method of manufacture thereof” (Achillion Pharmaceuticals Inc., priority 2013, dated 2015).

“Also recorded” adds a separate entry of the source.

Format in all cases: physicochemical
Data set [1] can be described thus: Solubility in water after temperature cycling between 40° C. and 5° C. The conditions noted are these: thermodynamic from solid, cycling between 40° C. and 5° C. for 2 days. The method, then: (§1) The solubility of ACH-0142684 sodium salt was determined at room temperature using the following procedure. The input material (˜10 mg) was weighed into each of 12 vials, followed by addition of a solvent in multiple aliquots between 50μL to 10-mL at room temperature. Samples were visually inspected for complete dissolution after each solvent addition. The solubility of crystalline ACH-0142684 sodium salt is summarized in TABLE 1, which provides a solubility assessment of amorphous API in 12 solvents. The solubility of API-0142684 in water after temperature cycling between 40° C. and 5° C. for 2 days is ˜50 mg/ml.

The nature of data set [2]: Solubility assessment at room temperature by solvent aliquot addition and visual inspection. The conditions noted are these: thermodynamic from solid. The method, then:
as §1

Data set [3] is described as follows: Solubility in screen solvents derived from loading in solvent and dissolution. The conditions noted are these: organic solvent or mixture, thermodynamic from solid. The text has this: They were selected based on a diverse range of properties including dielectric constants, boiling points, and H-bonding that are important to crystallization and crystal-form discovery. The values in TABLE 2 are derived from ACH-0142684 loading in solvent and dissolution. The symbol † indicates the solubility value is found in TABLE 1.

Data set [4] is described as follows: Vacuum oven drying and re-analysis by PXRD for form change. As to the method: PXRD diffractograms were acquired using either a Bruker D8 Discovery diffractometer with a HI-STAR GADDS detector or PANalytical X′Pert Pro diffractometer on Si zero-background wafers. All diffractograms were collected using Cu Kα (45 kV/40 mA) radiation and a step size of 0.02° 2θ unless noted otherwise.
A sample of Polymorph A was dried in a vacuum oven at 55° C. overnight with a small flow of nitrogen. FIG. 1 is a graph showing the results of X-ray powder diffraction analysis of pre-dried (lower trace) and post-dried (upper trace) Polymorph A sample. FIG. 2 is a graph showing the results of differential scanning calorimetry overlay of a pre-dried (lower trace) and post-dried (upper trace) Polymorph A sample. FIG. 3 is a graph showing the results of thermogravimetric analysis of the Form A polymorph.
A small amount of Polymorph B was dried in a vacuum oven at 50° C. for 16 hours and the sample was re-analyzed by PXRD to observe if there were any form changes.

A short description of data set [5]: Crystallization screening (temperature cycling, cooling, evaporation, vapor diffusion), form stability. The conditions noted are these: 48 solvents/mixtures. As to the method:
Crystallization experiments were conducted in 48 solvents and aqueous mixtures using the following three crystallization modes:
Temperature-cycled ripening of API slurries between 5-40° C. for 48 hours;
Cooling of saturated solutions prepared at RT to 5° C. (24 hours);
Slow evaporation of saturated solutions at RT.In addition, 10 vapor diffusion experiments were also conducted (Table 4) at RT. These solvent systems were selected based on API solubility, and the miscibility and boiling points of solvents and anti-solvents.
All solid outputs from the screen were isolated and analyzed by FT-Raman spectroscopy and/or PXRD. The samples were then sorted into polymorphs based on Raman spectral match. Representative samples from each of the polymorphs were further analyzed by additional techniques (PXRD, DSC, TGA-IR, PLM, etc.) as appropriate and as sample quantity permitted.
Characterization data and more detailed discussion of the different crystal forms are summarized in the following sections. In TABLES 3 and 4, A, B, C, D, or E, etc. indicates the respective crystalline polymorph obtained. “Amorphous” indicates an amorphous solid was obtained, (-) indicates the experiment was not performed, and a blank space indicates no solid was obtained. The screening study led to one hydrated form (Polymorph A) and multiple solvated forms (Polymorph s B-E). […]

A short description of data set [6]: Competitive ripening study between Polymorphs A and G. The conditions noted are these: slurry in 2-propanol, room temperature, sample isolated after 48 hours. As to the method:
A competitive ripening study was conducted between Polymorphs A and G at room temperature to determine their relative stabilities. Approximately 5 mg of Polymorphs A and G were added to a 2-mL HPLC vial containing 0.5 mL of 2-propanol. The suspension was stirred at room temperature for two days. Aliquots of the slurry were filtered after 20 and 48 hours. The isolated solids were analyzed by PXRD to determine any form conversion.

For the molecule `COc1ccc2c(O[C@@H]3C[C@H]4C(=O)N[C@]5(C(=O)[N-]S(=O)(=O)C6CC6)C[C@H]5/C=C\CCCCC[C@H](CC(=O)N5CCCC(F)(F)C5)C(=O)N4C3)cc(-c3nc(C(C)C)cs3)nc2c1C.[Na+]` [ACH-0142684 sodium salt], the solubility at 2 days in data set [1] is ~50 mg/mL. Further, the solubility in data set [2] (organic solvent or mixture, ACN) was 1 to 1.2 mg/mL; in data set [2] (organic solvent or mixture, DCM) it was 49 to 98 mg/mL; in data set [2] (organic solvent or mixture, DMSO), 97 to 129 mg/mL; in data set [2] (organic solvent or mixture, EtOAc), < 1.02 mg/mL; in data set [2] (organic solvent or mixture, IPA) it was 1.1 to 1.3 mg/mL; in data set [2] (organic solvent or mixture, MTBE), < 0.93 mg/mL. Further, the solubility in data set [2] (organic solvent or mixture, MeOH) is 92 to 123 mg/mL; in data set [2] (organic solvent or mixture, TFE) it was 100 to 133 mg/mL; in data set [2] (organic solvent or mixture, THF) it was 9.2 to 18.4 mg/mL; in data set [2] (organic solvent or mixture, Toluene), < 1.04 mg/mL; in data set [2] (organic solvent or mixture, acetone), 5.7 to 14 mg/mL; in data set [2] (Water), < 0.99 mg/mL.
In the case of `COc1ccc2c(O[C@@H]3C[C@H]4C(=O)N[C@]5(C(=O)NS(=O)(=O)C6CC6)C[C@H]5/C=C\CCCCC[C@H](CC(=O)N5CCCC(F)(F)C5)C(=O)N4C3)cc(-c3nc(C(C)C)cs3)nc2c1C` [ACH-0142684], the solubility in data set [3] (1,4-Dioxane) was < 50 mg/mL; in data set [3] (1-Butanol), < 50 mg/mL; in data set [3] (1-Methoxy-2-propanol), > 80 mg/mL; in data set [3] (1-propanol), < 50 mg/mL; in data set [3] (2-Butanone), < 50 mg/mL; in data set [3] (2-Methoxyethyl ether), < 90 mg/mL. Further, the solubility in data set [3] (2-methoxyethanol) was > 93 mg/mL; in data set [3] (2-propanol with 20 vol % water, 2-propanol: 20 vol % Water), < 95 mg/mL; in data set [3] (2-propanol: 5 vol % Water), < 50 mg/mL; in data set [3] (2-propanol: 10 vol %), < 50 mg/mL; in data set [3] (4-Methyl-2-pentanone), < 50 mg/mL; in data set [3] (Acetone: 5 vol % Water) it was < 50 mg/mL. Also, the solubility in data set [3] (Acetone: 10 vol % Water) was < 99 mg/mL; in data set [3] (Acetonitrile: 5 vol % Water), < 50 mg/mL; in data set [3] (Acetonitrile: 10 vol %) it was < 50 mg/mL; in data set [3] (Chlorobenzene) it was < 50 mg/mL; in data set [3] (Chloroform), > 153 mg/mL; in data set [3] (Cyclohexane) it was < 50 mg/mL. Further, the solubility in data set [3] (Cyclohexanone) was > 87 mg/mL; in data set [3] (DMF), > 93 mg/mL; in data set [3] (Dimethyl Carbonate), < 50 mg/mL; in data set [3] (Dioxane: 10 vol % Water) it was > 93 mg/mL; in data set [3] (EtOAc:pentane (1:1)), < 50 mg/mL; in data set [3] (EtOAc:pentane (1:4)), < 50 mg/mL. The solubility in data set [3] (EtOAc:pentane (1:10)) is < 50 mg/mL; in data set [3] (EtOH) it was < 72 mg/mL; in data set [3] (Isopropyl acetate) it was < 50 mg/mL; in data set [3] (Isopropyl ether) it was < 50 mg/mL; in data set [3] (MeOAc) it was < 50 mg/mL; in data set [3] (Methanol: 5 vol % Water), > 177 mg/mL. Also, the solubility in data set [3] (Methanol: 10 vol % Water) is > 85 mg/mL; in data set [3] (Pentane) it was < 50 mg/mL; in data set [3] (THF: 5 vol % Water), > 85 mg/mL; in data set [3] (THF: 10 vol % Water), > 107 mg/mL; in data set [3] (acetone with 20 vol % water, Acetone: 20 vol % Water), < 96 mg/mL; in data set [3] (nitromethane), < 50 mg/mL.
On to `COc1ccc2c(O[C@@H]3C[C@H]4C(=O)N[C@]5(C(=O)[N-]S(=O)(=O)C6CC6)C[C@H]5/C=C\CCCCC[C@H](CC(=O)N5CCCC(F)(F)C5)C(=O)N4C3)cc(-c3nc(C(C)C)cs3)nc2c1C.[Na+]` [Polymorph A], for which the “Form stability on drying (PXRD of dried sample)” value in data set [4] (vacuum oven at 55° C. overnight, small flow of nitrogen) was “does not show any change in form or crystallinity”. The “Form stability indicated by crystallization screen outcome” value in data set [5] was “the most stable form at the crystallization conditions studied; also recorded: stable form at/around room temperature”. Further, in data set [6], the “Relative stability of Polymorphs A and G (PXRD of isolated solids)” value is listed as “the more stable form at room temperature”.
For the molecule `COc1ccc2c(O[C@@H]3C[C@H]4C(=O)N[C@]5(C(=O)[N-]S(=O)(=O)C6CC6)C[C@H]5/C=C\CCCCC[C@H](CC(=O)N5CCCC(F)(F)C5)C(=O)N4C3)cc(-c3nc(C(C)C)cs3)nc2c1C.[Na+]` [Polymorph B], the “Form stability on drying (PXRD of dried sample)” value in data set [4] (vacuum oven at 50° C. for 16 hours) is on record as “does not show any change in form but the peaks appear to be broader”.

The solubility is the dissolved amount per volume that the medium holds.
